Test: general anesthesia assisted opiate detoxification with high-rate opiod antagonist infusion
Assay type: in vivo, patient
From the text: Treatment begins by providing the patient with Valium, Xanax and Trazedone, which are taken orally. The patient's vitals are then monitored using such equipment as an electrocardiogram, pulse oxymeter, blood pressure monitor, ETCO2 monitor, oxygen sensor, and tidol volume monitor. An intravenous (IV) line is then set-up and general anesthesia is induced, preferably using Valium, Propofol and Mivacron. These anesthetizing agents are suited to facilitate endotracheal (ET) intubation.
Once the anesthesia takes effect, an endotracheal tube is appropriately placed through the patient's oral cavity and the patient retrieves to spontaneous respirations over the next few minutes. A Precedex infusion is then started, preferably at […], to achieve cardiovascular stability. Next antiemetics and antiperistaltic agents are then administered. In accordance with the preferred method the antiemetics and antiperistaltic agents comprise dexamethazone somatostatin and robinul; other similar agents can be employed. An antihistamine agent, e.g., Benedryl, is then given.
Next, a Naloxone (or its generic counterpart Narcane) infusion is started at rate of 0.6 mg/kg/hr for one hour, i.e., 0.6 mg/hr per unit of the patient's metric weight. In accordance with the present invention, Naloxone is administered at rate greater than 1.5 mg/hr. […]

C=CCN1CC[C@]23c4c5ccc(O)c4O[C@H]2C(=O)CC[C@@]3(O)[C@H]1C5 [Naloxone]
medical risk to the patient of high-rate Naloxone administration (infusion 0.6 mg/kg/hr for one hour (30 mg/hr for 50 kg, approximately 50 mg/hr for 75 kg), patient anesthetized): does not expose a patient to a severe medical risk | risk to the patient of Naloxone administration (rate of 1.4 mg/kg/hr): without exposing the patient to unnecessary risks
